{"source": "patent US20190008918A1", "about": "“IMMUNOMODULATION THERAPIES FOR CANCER” (BIOXCEL CORPORATION, priority 2016, published 2019)", "key": {"[1]": {"tested_on": "MC38 mouse colon cancer cell line", "assay": "Antitumor efficacy in MC38 mouse model of colon adenocarcinoma (tumor volume, % TGI)", "type": "in vivo, mouse (C57BL/6)", "conditions": "day 10, Mifamurtide 30 μg biw and/or PD-1 antagonist 5 mg/kg biw", "from_the_text": "Six to seven-week-old female C57BL/6 mice (20±4 g weight) were used in the studies. Mice received food and water ad libitum. The study protocol, the procedures involving the care and use of animals were reviewed and approved by the Institutional Animal Care and Use Committee (IACUC) to ensure compliance with the regulations of the Association for Assessment and Accreditation of Laboratory Animal Care (AAALAC).\n(§1) DMEM medium (Cat. No.: 11960-044). Glutamax™ (Cat. No.: 35050061), Trypsin-EDTA (0.25%) (Cat. No.: 25200-056), Penicillin-Streptomycin (Cat. No.: 15070-063), Hanks' Balanced Salt solution (Cat. No.: 14175-095) were procured form Gibco, while Fetal Bovine Serum (FBS) Cat. No.: 004-001-1A was purchased from Biological Industries. PD-1 antagonist (Cat. No.: BE0146) was supplied by BioXcell. Stock solutions of PD-1 antagonist at 1 mg/ml were kept at 4° C. prior to use. Dosing solutions of PD-1 antagonist were prepared freshly before every administration in sterile phosphate buffered saline (pH 7.0) and maintained at 4° C. The test article Mifamurtide was procured from Sigma (SML0195) and prepared freshly as a working solution at concentration of 300 μg/ml and 100 μg/ml in sterile phosphate buffered saline (pH 7.0), to be administered at a total dose of 30 μg (corresponds to 1.5 mg/kg in mice) and 10 μg (corresponds to 0.5 mg/kg in mice) respectively, into the animal as indicated in Table 1. Luminex assay kit: MCYTOMAG-70K-32 was commercially available from Millipore, was used to analyze the cytokines and chemokines in the serum samples.\nMC38 mouse colon cancer cell line as provided by GenScript were maintained as monolayer culture in DMEM supplemented with 10% fetal bovine serum (FBS), 1% Glutamax™ and 1% Penicillin-Streptomycin at 37° C. in an atmosphere with 5% CO2. The cells were routinely sub-cultured every 2 days to maintain growth at exponential phase. The tumor cells growing in exponential growth phase were harvested by trypsinization, followed by centrifugation at 335×g relative centrifugal force (RCF) in a centrifuge. The supernatant was subsequently removed by aspiration. Cell pellet was re-suspended in approximately 10× volume of cell culture medium and counted. The cell suspension was centrifuged again and processed as above and finally re-suspended in HBSS at a density of 1×10^7 cells per ml. Cell viability was determined to be ≥95% by trypan blue staining. […]\nTumor size and body weights were measured twice weekly.\nTumor size was measured twice per week in 2 dimensions using a caliper (recorded up to one decimal point). Tumor volume, expressed in mm^3, was calculated using the following formula, in which “a” and “b” were the long and the short diameters of a tumor, respectively. […]"}, "[2]": {"tested_on": "cytokines (IFN-γ, IL-6, IL-12p40, and TNF-α) and chemokines (MCP-1 and MIP-2)", "assay": "Luminex analysis of serum cytokines and chemokines in MC38 tumor bearing mice", "type": "in vivo, mouse (C57BL/6)", "procedure": "as §1\nThe immuno-modulatory effect of Mifamurtide at dose of 30 μg (b.i.w.) in the presence and absence of PD-1 antagonist at dose 5 mg/kg (b.i.w.) was also analysed. Luminex analysis was done to check the levels of cytokines (IFN-γ, IL-6, IL-12p40, and TNF-α) and chemokines (MCP-1 and MIP-2). […] Although all Mifamurtide doses and combinations were tolerated with no early death and sustained effect on body weight (data not shown)."}, "[3]": {"conditions": "post (8 hours) vs pre, Mifamurtide 30 μg and/or PD-1 antagonist 5 mg/kg"}, "[4]": {"conditions": "post (Day 11) vs pre, Mifamurtide 30 μg and/or PD-1 antagonist 5 mg/kg"}, "[5]": {"conditions": "serum, 8 hours post dose, Mifamurtide 30 μg and/or PD-1 antagonist 5 mg/kg"}, "[6]": {"conditions": "serum, Day 11, Mifamurtide 30 μg and/or PD-1 antagonist 5 mg/kg"}, "[7]": {"conditions": "serum, before dosing, Mifamurtide 30 μg and/or PD-1 antagonist 5 mg/kg group"}}, "data": [{"substance": "Mifamurtide", "values": [{"measurement": "TGI % & SEM (with ref. to Mifamurtide)", "setting": "[1]", "value": 0.00, "unit": "%"}, {"measurement": "TGI % (±SEM) (with ref. to PD-1 Antagonist)", "setting": "[1]", "value": "−39.48", "unit": "%"}, {"measurement": "TGI % (±SEM) (with ref. to vehicle)", "setting": "[1]", "value": "−8.36", "unit": "%"}, {"measurement": "Tumor volume (mm^3) (±SEM)", "setting": "[1]; mean, i.p.", "value": 2791.64, "unit": "mm^3"}, {"measurement": "IFN gamma, Fold change", "setting": "[2]; [3]", "value": 0.0}, {"measurement": "IL-6, Fold change", "setting": "[2]; [3]", "value": 10.85}, {"measurement": "MCP-1, Fold change", "setting": "[2]; [3]", "value": 1.5}, {"measurement": "TNF-alpha, Fold change", "setting": "[2]; [3]", "value": 1.6}, {"measurement": "IL-12p40, Fold change", "setting": "[2]; [4]", "value": 1.0}, {"measurement": "MIP-2, Fold change", "setting": "[2]; [4]", "value": 0.7}, {"measurement": "IFN gamma, Post (8 hours)", "setting": "[2]; [5]", "value": 0, "unit": "picogram/ml"}, {"measurement": "IL-6, Post (8 hours)", "setting": "[2]; [5]", "value": 14.43, "unit": "picogram/ml"}, {"measurement": "MCP-1, Post (8 hours)", "setting": "[2]; [5]", "value": 23.54, "unit": "picogram/ml"}, {"measurement": "TNF-alpha, Post (8 hours)", "setting": "[2]; [5]", "value": 3.33, "unit": "picogram/ml"}, {"measurement": "IL-12p40, Post (Day 11)", "setting": "[2]; [6]", "value": 1.55, "unit": "picogram/ml"}, {"measurement": "MIP-2, Post (Day 11)", "setting": "[2]; [6]", "value": 13.67, "unit": "picogram/ml"}, {"measurement": "IFN gamma, Pre", "setting": "[2]; [7]", "value": 0, "unit": "picogram/ml"}, {"measurement": "IL-6, Pre", "setting": "[2]; [7]", "value": 1.33, "unit": "picogram/ml"}, {"measurement": "IL-12p40, Pre", "setting": "[2]; [7]", "value": 1.55, "unit": "picogram/ml"}, {"measurement": "MCP-1, Pre", "setting": "[2]; [7]", "value": 15.9, "unit": "picogram/ml"}, {"measurement": "MIP-2, Pre", "setting": "[2]; [7]", "value": 20.84, "unit": "picogram/ml"}, {"measurement": "TNF-alpha, Pre", "setting": "[2]; [7]", "value": 2.13, "unit": "picogram/ml"}]}]}
